The assay deals with ovariectomised (OVX) rats. Put plainly: In vivo anti-osteoporosis activity testing in OVX rat model (serum calcium, phosphate, bone parameters). Details: species or system Female Wistar Rats. Particulars: po. From the text: c) In Vivo Anti-Osteoporosis Activity Testing in OVX Rat Model: The ovariectomised (OVX) rats were used to study anti-osteoporosis activity of test compounds (short-chain peptides) in vivo. The OVX rats develop osteopenia due to ovarian hormone deficiency. Osteopenia can be detected as early as 14 days post OVX, increase for the next 100 days and then stabilised (Wronski T. J., et al., Calcif. Tissue Int., 43(3), 1988, 179-183). Detailed Study Protocol to Evaluate the Effects of Anabolic Therapy on Bone Markers and Histomorphometry in OVX Animals: 10 to 11 weeks old Female Wistar Rats (150-200 g) were used. The animals were kept in individually ventilated cages in a room with controlled temperature (23°±3° C.), lighting (12:12 h light-dark cycle) and relative humidity (55±10%). Animals had free access to standard rat chow and water. Protocol for use of animals for conducting this study has been reviewed and approved by Institutional Animal Ethics Committee (IAEC). The animals were marked with picric acid for identification and acclimatized to experimental room conditions for 2 days prior to initiation of the study. For the induction of osteoporosis, rats were bilaterally ovariectomised under anesthesia. For Ovariectomy, Incision was made on dorsa-lateral side near lumbar region of animal. After that, ovary was excised and the veins were tied with ligature before removing ovary to prevent blood loss. Then incision was sutured back with ligature. After Bilateral ovariectomy, animals were allowed to rest for 4 weeks. They were then divided into different groups (n=9) based on their body weight. The groups consisted of a no treatment control, PTH as standard and one or two groups of test compounds (short-chain peptides). The treatment was given for the duration of 6 weeks. At the last day of treatment animals were kept overnight in metabolic cages under fasting for the collection of Urine. Next day, blood was collected after 24 hours of last dosing and animals were sacrificed. Changes in biochemical parameters and bone turnover parameters (Increase in serum Calcium and decrease in Phosphate levels, Acid Phosphatase and TRAP) were evaluated in the urine and serum. After sacrificing, intact femur and tibial bones are removed and cleaned from adherent tissues, muscles and tendons; weighed and collected in formal saline (10% formaldehyde solution). Lumbar vertebra (L5) was excised, carefully cleaned and collected in formal saline. Femur, tibia and Lumbar vertebra-5 (L5) were later processed for histomorphometric evaluation (Zhang L., et al., Tohoku J Exp Med., 1998, 186(2), 131-41; Tanizawa T., et al., Toxicol Lett., 1998, 102, 399-403).

Where a SMILES comes first, the peptide text is derived from it. [ ]: non-standard residue; d: D form. ξ: configuration not given here. ξαMeBip(2'-Et,4'-OMe) = CCc1cc(OC)ccc1-c1ccc(CC(C)(N)C(=O)O)cc1; ξBip(2'-Et-4'-OMe) = CCc1cc(OC)ccc1-c1ccc(CC(N)C(=O)O)cc1; ξαMePhe(2,6-F2) = CC(N)(Cc1c(F)cccc1F)C(=O)O; ξαMe(hhPhe) = CC(N)(CCCc1ccccc1)C(=O)O; ξαMePhe(2-F) = CC(N)(Cc1ccccc1F)C(=O)O; hArg = N=C(N)NCCCC[C@H](N)C(=O)O; Cit = NC(=O)NCCC[C@H](N)C(=O)O; ξhhPhe = NC(CCCc1ccccc1)C(=O)O; ξαMeF = CC(N)(Cc1ccccc1)C(=O)O; NMeV = CN[C@H](C(=O)O)C(C)C; ξαMeNle = CCCCC(C)(N)C(=O)O; Nle = CCCC[C@H](N)C(=O)O; Orn = NCCC[C@H](N)C(=O)O; ξαMeP = CC1(C(=O)O)CCCN1; Ac5c = NC1(C(=O)O)CCCC1; Ac3c = NC1(C(=O)O)CC1; Aib = CC(C)(N)C(=O)O

In the case of `CCCC[C@H](NC(=O)C(C)(Cc1c(F)cccc1F)NC(=O)[C@H](CCC(N)=O)NC(=O)[C@@H](NC(=O)[C@H](CCC(=O)O)NC(=O)C(C)(C)NC(=O)[C@@H](NC(=O)C1(N)CCCC1)C(C)C)[C@@H](C)CC)C(=O)N[C@@H](Cc1c[nH]cn1)C(=O)N[C@@H](CCC(N)=O)C(=O)N[C@@H](CCCN)C(=O)N[C@@H](C)C(=O)NC(C)(Cc1c(F)cccc1F)C(=O)NC(Cc1ccc(-c2ccc(OC)cc2CC)cc1)C(=O)NC(CCCc1ccccc1)C(N)=O` (stereo partly drawn) [Seq. ID. 833] (H-[Ac5c]V[Aib]EIQ[ξαMePhe(2,6-F2)][Nle]HQ[Orn]A[ξαMePhe(2,6-F2)][ξBip(2'-Et-4'-OMe)][ξhhPhe]-NH2), where the note is “0.05 mg/kg”, the “% decrease in serum PO4 Levels (mg/dl) vs control” value (“% decrease in serum PO4 Levels” for short) worked out at 78% and the “% increase in serum Ca^2+ Levels (mg/dl) vs control” value (“% increase in serum Ca^2+ Levels” for short) came out at 86%.

`CCCC[C@H](NC(=O)C(C)(Cc1c(F)cccc1F)NC(=O)[C@H](CCC(N)=O)NC(=O)[C@@H](NC(=O)[C@H](CCC(=O)O)NC(=O)C(C)(C)NC(=O)[C@@H](NC(=O)C1(N)CCCC1)C(C)C)[C@@H](C)CC)C(=O)N[C@@H](Cc1c[nH]cn1)C(=O)N[C@@H](CCC(N)=O)C(=O)N[C@@H](CCCNC(N)=O)C(=O)N[C@@H](C)C(=O)NC(C)(Cc1c(F)cccc1F)C(=O)NC(C)(Cc1c(F)cccc1F)C(N)=O` (stereo partly drawn) [Seq. ID. 391] (H-[Ac5c]V[Aib]EIQ[ξαMePhe(2,6-F2)][Nle]HQ[Cit]A[ξαMePhe(2,6-F2)][ξαMePhe(2,6-F2)]-NH2): under “0.1 mg/kg”, the “% decrease in serum PO4 Levels” value is 59% and the “% increase in serum Ca^2+ Levels” value came out at 82%.

Consider `CCCC[C@H](NC(=O)C(C)(Cc1c(F)cccc1F)NC(=O)[C@H](CCC(N)=O)NC(=O)[C@@H](NC(=O)[C@H](CCC(=O)O)NC(=O)C1(NC(=O)[C@@H](NC(=O)C2(N)CCCC2)C(C)C)CCCC1)[C@@H](C)CC)C(=O)N[C@@H](Cc1c[nH]cn1)C(=O)N[C@@H](CCC(N)=O)C(=O)N[C@@H](CCCCNC(=N)N)C(=O)NC(C)(C)C(=O)N[C@@H](CCCCN)C(=O)NC(C)(Cc1c(F)cccc1F)C(N)=O` (stereo partly drawn) [Seq. ID. 117] (H-[Ac5c]V[Ac5c]EIQ[ξαMePhe(2,6-F2)][Nle]HQ[hArg][Aib]K[ξαMePhe(2,6-F2)]-NH2), for which, under “3 mg/kg”, the “% decrease in serum PO4 Levels” value was 99% and the “% increase in serum Ca^2+ Levels” value is 110%.

`CCCC[C@H](NC(=O)C(C)(Cc1ccccc1F)NC(=O)[C@H](CCC(N)=O)NC(=O)[C@@H](NC(=O)[C@H](CCC(=O)O)NC(=O)C(C)(C)NC(=O)[C@@H](NC(=O)C1(N)CCCC1)C(C)C)[C@@H](C)CC)C(=O)N[C@@H](Cc1c[nH]cn1)C(=O)N[C@@H](CCC(N)=O)C(=O)NC(C)(C)C(=O)NC(C)(C)C(=O)NC(C)(C)C(=O)NC(C)(Cc1ccccc1F)C(N)=O` (stereo partly drawn) [Seq. ID. 556] (H-[Ac5c]V[Aib]EIQ[ξαMePhe(2-F)][Nle]HQ[Aib][Aib][Aib][ξαMePhe(2-F)]-NH2): where the note is “5 mg/kg”, the “% decrease in serum PO4 Levels” value is on record as 84% and the “% increase in serum Ca^2+ Levels” value came out at 77%.

With `CCCC[C@H](NC(=O)[C@H](CC(C)C)NC(=O)[C@H](CCC(N)=O)NC(=O)[C@@H](NC(=O)[C@H](CCC(=O)O)NC(=O)C(C)(C)NC(=O)[C@@H](NC(=O)C(C)(C)N)C(C)C)[C@@H](C)CC)C(=O)N[C@@H](Cc1c[nH]cn1)C(=O)N[C@@H](CCC(N)=O)C(=O)NC(C)(Cc1c(F)cccc1F)C(=O)N[C@@H](C)C(=O)NC(C)(C)C(=O)NC(Cc1ccc(-c2ccc(OC)cc2CC)cc1)C(=O)NC(CCCc1ccccc1)C(N)=O` (stereo partly drawn) [Seq. ID. 798] (H-[Aib]V[Aib]EIQL[Nle]HQ[ξαMePhe(2,6-F2)]A[Aib][ξBip(2'-Et-4'-OMe)][ξhhPhe]-NH2), under “5 mg/kg”, the “% decrease in serum PO4 Levels” value came out at 82% and the “% increase in serum Ca^2+ Levels” value is listed as 88%.

Regarding `CCCC[C@H](NC(=O)C(C)(Cc1c(F)cccc1F)NC(=O)[C@H](CCC(N)=O)NC(=O)[C@@H](NC(=O)[C@H](CCC(=O)O)NC(=O)C(C)(C)NC(=O)[C@@H](NC(=O)C1(N)CCCC1)C(C)C)[C@@H](C)CC)C(=O)N[C@@H](Cc1c[nH]cn1)C(=O)N[C@@H](CCC(N)=O)C(=O)NC(C)(Cc1c(F)cccc1F)C(=O)N[C@@H](C)C(=O)NC(C)(Cc1c(F)cccc1F)C(=O)NC(C)(Cc1ccccc1F)C(N)=O` (stereo partly drawn) [Seq. ID. 511] (H-[Ac5c]V[Aib]EIQ[ξαMePhe(2,6-F2)][Nle]HQ[ξαMePhe(2,6-F2)]A[ξαMePhe(2,6-F2)][ξαMePhe(2-F)]-NH2), where the note is “1 mg/kg”, the “% decrease in serum PO4 Levels” value worked out at 88% and the “% increase in serum Ca^2+ Levels” value is 84%.

With `CCCC[C@H](NC(=O)[C@H](CC(C)C)NC(=O)[C@H](CCC(N)=O)NC(=O)[C@@H](NC(=O)[C@H](CCC(=O)O)NC(=O)C(C)(C)NC(=O)[C@@H](NC(=O)C1(N)CC1)C(C)C)[C@@H](C)CC)C(=O)N[C@@H](Cc1c[nH]cn1)C(=O)N[C@@H](CCC(N)=O)C(=O)N[C@@H](CCCCNC(=N)N)C(=O)N[C@@H](C)C(=O)N[C@@H](CCCCN)C(=O)NC(Cc1ccc(-c2ccc(OC)cc2CC)cc1)C(N)=O` (stereo partly drawn) [Seq. ID. 649] (H-[Ac3c]V[Aib]EIQL[Nle]HQ[hArg]AK[ξBip(2'-Et-4'-OMe)]-NH2), for the setting “2 mg/kg”, the “% decrease in serum PO4 Levels” value is listed as 82% and the “% increase in serum Ca^2+ Levels” value was found to be 86%.

Regarding `CCc1cc(OC)ccc1-c1ccc(CC(C)(NC(=O)[C@H](CCCCNC(=N)N)NC(=O)[C@H](C)NC(=O)[C@H](CCCCNC(=N)N)NC(=O)[C@H](CCC(N)=O)NC(=O)[C@H](Cc2c[nH]cn2)NC(=O)[C@H](CCSC)NC(=O)[C@H](CC(C)C)NC(=O)[C@H](CCC(N)=O)NC(=O)[C@@H](NC(=O)[C@H](CCC(=O)O)NC(=O)C(C)(C)NC(=O)[C@@H](NC(=O)C(C)(C)NC(=O)[C@@H](N)C(C)C)C(C)C)[C@@H](C)CC)C(=O)NC(CCCc2ccccc2)C(N)=O)cc1` (stereo partly drawn) [Seq. ID. 902] (H-V[Aib]V[Aib]EIQLMHQ[hArg]A[hArg][ξαMeBip(2'-Et,4'-OMe)][ξhhPhe]-NH2), under “0.8 mg/kg”, the “% decrease in serum PO4 Levels” value was 98% and the “% increase in serum Ca^2+ Levels” value was 110%.

For `CC[C@H](C)[C@H](NC(=O)[C@H](CCC(=O)O)NC(=O)C(C)(C)NC(=O)[C@@H](NC(=O)C1(N)CC1)C(C)C)C(=O)N[C@@H](CCC(N)=O)C(=O)N[C@@H](CC(C)C)C(=O)N[C@@H](CCSC)C(=O)N[C@@H](Cc1c[nH]cn1)C(=O)N[C@@H](CCC(N)=O)C(=O)N[C@@H](CCCCNC(=N)N)C(=O)N1CCCC1(C)C(=O)N[C@@H](CCCCN)C(=O)NC(C)(Cc1ccccc1)C(N)=O` (stereo partly drawn) [Seq. ID. 12] (H-[Ac3c]V[Aib]EIQLMHQ[hArg][ξαMeP]K[ξαMeF]-NH2), under “5 mg/kg”, the “% decrease in serum PO4 Levels” value is 102% and the “% increase in serum Ca^2+ Levels” value worked out at 118%.

For `CCCC[C@H](NC(=O)C(C)(Cc1c(F)cccc1F)NC(=O)[C@H](CCC(N)=O)NC(=O)[C@@H](NC(=O)[C@H](CCC(=O)O)NC(=O)C(C)(C)NC(=O)[C@@H](NC(=O)C(C)(C)N)C(C)C)[C@@H](C)CC)C(=O)N[C@@H](Cc1c[nH]cn1)C(=O)N[C@@H](CCC(N)=O)C(=O)N[C@@H](CCCCNC(=N)N)C(=O)N1CCCC1(C)C(=O)N[C@@H](CCCCN)C(=O)NC(C)(Cc1ccccc1F)C(N)=O` (stereo partly drawn) [Seq. ID. 72] (H-[Aib]V[Aib]EIQ[ξαMePhe(2,6-F2)][Nle]HQ[hArg][ξαMeP]K[ξαMePhe(2-F)]-NH2), under “0.01 mg/kg”, the “% decrease in serum PO4 Levels” value was 77% and the “% increase in serum Ca^2+ Levels” value worked out at 49%.

Regarding `CCCC[C@H](NC(=O)C(C)(Cc1c(F)cccc1F)NC(=O)[C@H](CCC(N)=O)NC(=O)[C@@H](NC(=O)[C@H](CCC(=O)O)NC(=O)C(C)(C)NC(=O)[C@@H](NC(=O)C(C)(C)N)C(C)C)[C@@H](C)CC)C(=O)N[C@@H](Cc1c[nH]cn1)C(=O)N[C@@H](CCC(N)=O)C(=O)N[C@@H](CCCCNC(=N)N)C(=O)N[C@@H](C)C(=O)NC(C)(C)C(=O)NC(Cc1ccc(-c2ccc(OC)cc2CC)cc1)C(=O)NC(CCCc1ccccc1)C(N)=O` (stereo partly drawn) [Seq. ID. 814] (H-[Aib]V[Aib]EIQ[ξαMePhe(2,6-F2)][Nle]HQ[hArg]A[Aib][ξBip(2'-Et-4'-OMe)][ξhhPhe]-NH2), where the note is “0.02 mg/kg”, the “% decrease in serum PO4 Levels” value amounted to 95% and the “% increase in serum Ca^2+ Levels” value stood at 99%.

With `CCCCC(C)(NC(=O)[C@H](CC(C)C)NC(=O)[C@H](CCC(N)=O)NC(=O)[C@@H](NC(=O)[C@H](CCC(=O)O)NC(=O)C(C)(C)NC(=O)[C@@H](NC(=O)C1(NC(=O)[C@@H](NC)C(C)C)CCCC1)C(C)C)[C@@H](C)CC)C(=O)N[C@@H](Cc1c[nH]cn1)C(=O)N[C@@H](CCC(N)=O)C(=O)N[C@@H](CCCCNC(=N)N)C(=O)N[C@@H](C)C(=O)N[C@@H](CCCCNC(=N)N)C(=O)NC(C)(Cc1ccccc1F)C(=O)NC(C)(CCCc1ccccc1)C(N)=O` (stereo partly drawn) [Seq. ID. 941] (H-[NMeV][Ac5c]V[Aib]EIQL[ξαMeNle]HQ[hArg]A[hArg][ξαMePhe(2-F)][ξαMe(hhPhe)]-NH2), under “0.9 mg/kg”, the “% decrease in serum PO4 Levels” value is on record as 95% and the “% increase in serum Ca^2+ Levels” value is 99%.
